# Measured values taken from US12433876B2, “Septin inhibitors for treatment of cancers” (UNIVERSITY OF ROCHESTER, priority 2019, dated 2025).
# Test system: HE4
# Assay: HE4 ELISA, secreted and intracellular levels
# Type: cell-based, human
# Protocol: Cell lines, Culture, and Reagents. Cells were maintained in either DMEM (SKOV-3, KLE, OVCAR-3, OVCAR8-C5 and IGROV-1) or RPMI-1640 (ECC-1 and HCH-1), supplemented with 10% fetal calf serum (or 20% for OVCAR-3), penicillin (100 units/mL), and streptomycin (100 μg/mL) at 37° C. with 5% CO2 in a humidified incubator. Antibodies were purchased from Abcam (septin-2; ab179436) and Cell Signaling Technology; ERK (9102), p-ERK (4370), -actin (3700), u-Tubulin (2144), EGFR (4267) and HER2 (4290). FCF was purchased from Abcam. All other chemicals were from Sigma Aldrich. Synthesis of Derivaties. […] The reaction was monitored using thin-layer chromatography plates with DCM-MeOH or pure ethyl acetate as eluent. Spots were monitored in a UV chamber. The reaction mixture, upon completion of the reaction, was poured into wet ice mixture and triturated, then the separated solid was filtered by vacuum. The product was washed with hexane, followed by diethyl ether, and was dried under vacuum. The compounds were characterized by spectrophotometric techniques. Quantitative Real-Time PCR. The indicated cell lines were transfected with siRNA targeting septin-2 or non-targeting control siRNA (Santa Cruz Biotechnology: sc-37007 or sc-40936) using Lipofectamine 3000 (Invitrogen). Tri reagent and Direct-zol kit (Zymo Research) were used to lyse and isolate total RNA. Reverse transcription was performed using iScript cDNA synthesis kit (BioRad), both following the manufacturer's recommendations. Quantitative real-time PCR was conducted using QuantStudio 12 K Flex Real-Time PCR System (ABI) and the Taqman Gene Expression Assay (ABI) consisting of the FAM-labeled probes as follows: SEPT2 (Hs01565417_ml); WFDC2 (Hs00899484_ml); TBP (Hs00427620_ml) or B2M (Hs00187842_ml), which was used as reference for normalization. Cell Viability, Proliferation and Apoptosis Assay. Cell viability, proliferation, and cellular apoptosis were measured using the MTS (Promega), BrdU cell proliferation (Cell Signaling Technology), and Caspase-Glo 3/7 apoptosis detection (Promega) assays, following the respective manufacturer's recommendations with suitable modification. Enzyme-Linked Immunosorbent Assay (ELISA) and Immunoblotting. Cells were maintained overnight in the culture media described above. […] Following the treatment, cell lysates and supernatants were collected and subjected to HE4 assay (Human HE4 Quantikine ELISA Kit, R&D Systems). The amount of HE4 in supernatant was normalized to the protein concentration of matching cell lysate. The levels of HER2 were determined by Human Total ErbB2/Her2 DuoSet IC ELISA (R&D systems. Wester blot analysis was conducted using the protocol previously published (see Kim, K. K. et al. Tetrathiomolybdate inhibits mitochondrial complex IV and mediates degradation of hypoxia-inducible factor-1alpha in cancer cells. Sci. Rep. 5, 14296, 2015). Data Acquisition and Statistical Analysis. Gene expression profiling of septins, comparing microdissected normal ovarian stroma (N=8) against that of tumor stroma samples (N=31) from high grade serous ovarian cancer patients, was obtained from Mixed Ovarian Cancer (CAFs)-Wong-77-u133p2 data-set through ‘R2: Genomics Analysis and Visualization Platform (http://r2/am/n1). […] Survival curves between septin high and low population and their statistical significance were analyzed using GraphPad Prism software (Mantel-Cox test). […]
smiles,measurement,setting,value
"O=C(Nc1ccccc1)Nc1ccnc(Cl)c1 [FCF, N-(2-chloro-4-pyridyl)-N′-phenylurea, reference compound]",HE4 secretion,"ECC-1 and HCH-1 cells, 5 hours",dose-dependent
same,HE4 secretion,"OVCAR8-C5, 300 μM for 7 h",decrease in HE4 secretion
same,intracellular levels of HE4,"OVCAR8-C5, 300 μM for 7 h",marginal increase
